Measurements published in PMC11040934, “PI3Kγδ inhibition suppresses key disease features in a rat model of asthma” (Respiratory Research, 2024).
Like-named read-outs stand apart in the source and are kept apart here.

Assays:
rat PI3Kγ = rat PI3Kγ (Rattus norvegicus, UniProt D3ZFJ0); assay: PI3K γ assay: CXCL1/CINC-1-stimulated CD11b expression on rat whole blood neutrophils (FACS); format: cell-based; settings: mean ± SEM, n = 3
Method: PI3K γ assay: whole blood from male Sprague Dawley rat was collected in heparin coated tubes and pre-treated (1 hr., 37 °C, 5% CO2) with vehicle DMSO or PI3K inhibitors followed by stimulation with Rat CXCL1/CINC-1 (515-CN-050, R&D) at 500 ng/mL (EC80 determined in house; 1 hr., RT). Next, cells were stained with Fc block (550,273, BD bioscience, 1:100; 20 mins, RT), CD45R-B220-PeCy7 (HIS24) (25–0460-82, eBioscience, 1:100), CD43-PE (W3/13) (202,812, Biolegend, 1:100), HIS48-FITC (11–0570-82, eBioscience, 1:100), CD11b-APC (562,102, BD Bioscience, 1:100). Cells were lysed and fixed with BD FACS lysing solution (349,202, BD Biosciences; 45 mins, RT) before FACS acquisition (BD LSRFortessa™). Data were analysed using FlowJo 9.9 software (TreeStar). FACS gating strategy: lymphocytes (FSC-A vs SSC-A), doublets exclusion (FSC-W vs FSC-H), neutrophil identification B220-, HIS48hi, CD43hi, SSC-Ahi, geom. MFI for CD11b on neutrophils. IC50 values were determined in Graph Pad through a nonlinear fit on log transform data: log inhibitor vs response, variable slope, 4 parameters. Fraction unbound in diluted whole blood is calculated using the following equation: fu^′=DF·fub/1+DF-1·fub where fu’ is the fraction unbound in diluted whole blood; fub is the fraction unbound in undiluted whole blood; DF is the dilution factor. Fraction unbound in 100% whole blood (fub) is calculated as fup/BP, where fup is the experimentally determined fraction unbound in undiluted plasma and BP is the experimentally determined blood to plasma partition ratio of drug Table 1.

rat PI3Kδ = molecular target: T1, rat PI3Kδ (Rattus norvegicus, UniProt A0A8I5Y949); assay: PI3K δ assay: anti-IgM-stimulated CD86 expression on rat splenic B cells (FACS); format: cell-based; settings: mean ± SEM, n = 3
T1 sequence (A0A8I5Y949 1-1047): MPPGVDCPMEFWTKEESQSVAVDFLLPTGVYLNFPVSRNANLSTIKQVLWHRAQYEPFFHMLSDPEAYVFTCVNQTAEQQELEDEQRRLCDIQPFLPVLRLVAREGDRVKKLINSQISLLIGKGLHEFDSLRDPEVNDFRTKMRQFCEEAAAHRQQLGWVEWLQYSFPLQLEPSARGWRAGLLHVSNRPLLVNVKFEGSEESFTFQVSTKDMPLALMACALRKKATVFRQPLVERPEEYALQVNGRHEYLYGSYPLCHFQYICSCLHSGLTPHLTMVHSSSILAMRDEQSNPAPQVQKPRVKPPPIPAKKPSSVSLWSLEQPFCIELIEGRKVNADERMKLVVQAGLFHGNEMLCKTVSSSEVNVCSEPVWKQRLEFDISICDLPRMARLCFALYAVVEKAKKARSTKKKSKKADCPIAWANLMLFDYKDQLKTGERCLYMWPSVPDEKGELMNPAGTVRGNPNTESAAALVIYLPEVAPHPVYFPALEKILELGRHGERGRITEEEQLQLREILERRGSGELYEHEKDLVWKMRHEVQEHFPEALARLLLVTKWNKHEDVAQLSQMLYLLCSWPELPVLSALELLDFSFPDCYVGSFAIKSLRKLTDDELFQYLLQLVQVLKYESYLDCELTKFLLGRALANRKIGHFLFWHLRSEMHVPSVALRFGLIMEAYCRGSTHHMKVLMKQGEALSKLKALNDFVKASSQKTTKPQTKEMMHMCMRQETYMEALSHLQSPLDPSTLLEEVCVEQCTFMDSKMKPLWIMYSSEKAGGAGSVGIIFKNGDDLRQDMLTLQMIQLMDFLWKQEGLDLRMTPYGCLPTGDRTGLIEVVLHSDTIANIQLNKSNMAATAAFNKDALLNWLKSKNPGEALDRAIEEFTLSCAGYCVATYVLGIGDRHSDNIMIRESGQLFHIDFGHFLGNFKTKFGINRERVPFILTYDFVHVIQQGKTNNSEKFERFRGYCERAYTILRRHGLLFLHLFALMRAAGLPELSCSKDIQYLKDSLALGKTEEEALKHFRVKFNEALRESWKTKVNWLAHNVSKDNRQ
Method: PI3K δ assay: single cell suspension was obtained from the spleen of male Sprague Dawley rat; cells were cultured in RPMI containing heat-inactivated 10% FBS, pre-treated (1 hr., 37 °C, 5% CO2) with vehicle DMSO or PI3K inhibitors, followed by stimulation with AffiniPure F(ab’)2 Fragment Goat Anti-Rat IgM, μ chain specific, Jackson Immunoresearch (112–006-075) at 5 μg/mL (EC80 determined in house; 20–22 hrs). Then, cells were washed with FACS buffer (2% FBS, […]) and stained (15 mins, 4 °C) with Fc block (1:100, 550,273, BD bioscience), LIVE/DEAD Fixable Aqua Dead Cell Stain Kit (L34957, Invitrogen, 1:300), CD45R (B220)-PeCy7 (HIS24) (25–0460-82, eBioscience, 1:100), CD3-AF647 (IF4) (201,408, Biolegend, 1:100), CD86-FITC (24F) (200,305, Biolegend, 1:50). Cells were acquired on the Flow Cytometer (BD LSRFortessa™) and analysed using FlowJo 9.9 software (TreeStar). FACS gating strategy: lymphocytes (FSC-A vs SSC-A), doublets exclusion (FSC-W vs FSC-H), live cells (Aqua-530-), B cell identification CD3- B220 + % of positive B cells for CD86. IC50 values were determined in Graph Pad through a nonlinear fit on log transform data: log inhibitor vs response, variable slope, 4 parameters. Fraction unbound in in vitro assay is calculated using the following equation: fu^′=DF·fup/1+DF-1·fup where fu’ is the fraction unbound in assay media; fup is the experimentally determined fraction unbound in undiluted human plasma; DF is the dilution factor (fold difference between protein concentration in human plasma and assay media, using an albumin concentration of 600 μM (40 g/L) for undiluted plasma) Table 2.

Chain of rat PI3Kγ (D3ZFJ0 1-1102): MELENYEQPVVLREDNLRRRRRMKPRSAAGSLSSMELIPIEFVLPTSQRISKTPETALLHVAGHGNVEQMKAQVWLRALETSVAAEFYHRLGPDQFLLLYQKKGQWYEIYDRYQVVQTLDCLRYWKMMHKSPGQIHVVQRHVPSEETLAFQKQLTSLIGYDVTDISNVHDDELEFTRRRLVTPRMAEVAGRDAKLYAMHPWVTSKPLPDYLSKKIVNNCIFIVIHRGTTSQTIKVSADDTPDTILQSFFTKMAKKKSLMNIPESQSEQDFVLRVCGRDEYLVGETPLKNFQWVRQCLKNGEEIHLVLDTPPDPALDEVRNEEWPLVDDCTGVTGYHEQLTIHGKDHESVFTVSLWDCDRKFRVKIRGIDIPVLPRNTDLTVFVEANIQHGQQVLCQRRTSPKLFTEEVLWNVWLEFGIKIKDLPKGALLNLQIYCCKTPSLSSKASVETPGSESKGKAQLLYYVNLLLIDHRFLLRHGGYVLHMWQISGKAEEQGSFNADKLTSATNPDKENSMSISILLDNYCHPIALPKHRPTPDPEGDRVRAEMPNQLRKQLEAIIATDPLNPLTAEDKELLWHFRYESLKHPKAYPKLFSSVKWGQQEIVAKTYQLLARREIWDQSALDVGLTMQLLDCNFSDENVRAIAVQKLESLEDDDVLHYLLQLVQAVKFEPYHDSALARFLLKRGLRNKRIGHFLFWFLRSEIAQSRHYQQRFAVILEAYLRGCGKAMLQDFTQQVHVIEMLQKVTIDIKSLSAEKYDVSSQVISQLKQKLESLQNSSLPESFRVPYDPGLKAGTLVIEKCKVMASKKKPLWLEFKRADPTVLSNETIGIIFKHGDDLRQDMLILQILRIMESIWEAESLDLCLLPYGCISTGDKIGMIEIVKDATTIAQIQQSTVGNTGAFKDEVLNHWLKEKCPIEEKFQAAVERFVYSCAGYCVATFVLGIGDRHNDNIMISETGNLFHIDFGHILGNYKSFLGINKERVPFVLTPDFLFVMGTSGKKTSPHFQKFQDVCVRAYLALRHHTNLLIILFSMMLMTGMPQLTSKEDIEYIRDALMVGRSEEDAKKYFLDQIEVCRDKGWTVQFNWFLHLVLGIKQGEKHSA

- IC50 (rat PI3Kγ; CD11b expression on neutrophils, read-out: rat γ total IC50): 28.7 ± 4.1 nM
- IC50 (rat PI3Kγ; corrected for protein binding in the assay, read-out: rat γ free IC50): 0.54 ± 0.08 nM
- IC50 (rat PI3Kδ; CD86 expression on B cells, read-out: rat δ total IC50): 10.5 ± 6.2 nM
- IC50 (rat PI3Kδ; corrected for protein binding in the assay, read-out: rat δ free IC50): 0.63 ± 0.37 nM
SMILES: Cc1nc(Nc2cccc(N3CCCC3=O)n2)sc1-c1cc2c(c(S(C)(=O)=O)c1)C(=O)N([C@@H](C)C1CC1)C2 [AZD8154]
